Source: PMC12040169 (PLOS Biology, 2025)

Experiment: in vitro
Settings: human, hela cells, % viability
Molecule `c1ccc(CN2C[C@H]3CCc4c[nH]nc4[C@H]3C2)nc1` [CBK282108] has a viability at 28.5 h, 10 µM of 87%. In the case of `O=C(c1ccncc1)N1C[C@H]2CCc3c(n[nH]c3C(F)(F)F)[C@H]2C1` [CBK282110], the viability at 28.5 h, 10 µM was 87.3%. For `Cc1nc(C2CCN(Cc3ccccc3)C2)c2ccccn12` (stereo not drawn) [CBK282111], the viability at 28.5 h, 10 µM was 88.1%. Molecule `Cn1ccnc1SCCNC(=O)c1cccc(Cn2cccn2)c1` [CBK282112] has a viability at 28.5 h, 10 µM of 105%. Molecule `CCCC(=O)NCCn1ncc(-c2ccncc2)c1C1CC1` [CBK282116] has a viability at 28.5 h, 10 µM of 83.6%. `O=C(C1CCCN(CC(O)c2cccs2)C1)N1CCCCCC1` (stereo not drawn) [CBK282117] gave a viability at 28.5 h, 10 µM of 100%. In the case of `CCn1c(CN(C)Cc2cc(C)[nH]n2)nc2ccccc21` [CBK282120], the viability at 28.5 h, 10 µM was 110%. Work on `CN(C)CC1CCCN(C(=O)c2cc3cc(Cl)ccc3n2C)C1` (stereo not drawn) [CBK282121] yielded a viability at 28.5 h, 10 µM of 111%. With `CN(C)CC1CCCN(C(=O)c2cc3cc(F)ccc3n2C)C1` (stereo not drawn) [CBK282122] the viability at 28.5 h, 10 µM was 85.6%. For `CCn1nc(C)c(CN(C)Cc2nc3ccccc3[nH]2)c1C` [CBK282126], the viability at 28.5 h, 10 µM was 93.9%. Work on `Cc1nc2ccc(C(=O)N3CCN(C4CCCCC4)C(=O)C3)cc2[nH]1` [CBK282131] yielded a viability at 28.5 h, 10 µM of 86.5%. In the case of `O=C(C1CC1)N1CCCc2cc(C(O)CN3CCCCC3)ccc21` (stereo not drawn) [CBK282135], the viability at 28.5 h, 10 µM was 99.5%. With `CC1CCCN(CC(O)c2ccc3c(c2)CCCN3C(=O)C2CC2)C1` (stereo not drawn) [CBK282136] the viability at 28.5 h, 10 µM was 100%. `Cc1nn(C(C)CC(=O)N2CCCC(CN(C)C)C2)c(C)c1Cl` (stereo not drawn) [CBK282137] gave a viability at 28.5 h, 10 µM of 107%. `Cn1nc(C2CC2)cc1C(=O)NCCN1CCc2ccccc21` [CBK282138] gave a viability at 28.5 h, 10 µM of 91.5%. `CCC(=O)N1CCCc2cc(C(O)CN3CCC(C)CC3)ccc21` (stereo not drawn) [CBK282144] showed a viability at 28.5 h, 10 µM of 105%. In the case of `CCN(CC)C(=O)CCn1c(-c2cccnc2C)cc2cccnc21` [CBK282147], the viability at 28.5 h, 10 µM was 91.5%. `CCN(CC)C(=O)CCn1c(-c2ccc(C)nc2)cc2cccnc21` [CBK282150] showed a viability at 28.5 h, 10 µM of 87.2%. In the case of `O=C(CCn1c(-c2ccncc2)cc2cccnc21)N1CCCC1` [CBK282151], the viability at 28.5 h, 10 µM was 96.7%. With `CC1CCCN(C(=O)CCn2c(-c3ccncc3)cc3cccnc32)C1` (stereo not drawn) [CBK282152] the viability at 28.5 h, 10 µM was 108%. `CC1CCCN(C(=O)CCn2c(-c3ccccn3)cc3cccnc32)C1` (stereo not drawn) [CBK282154] showed a viability at 28.5 h, 10 µM of 91.2%. In the case of `CCN(CC)C(=O)CCn1c(-c2cccnc2)cc2cccnc21` [CBK282160], the viability at 28.5 h, 10 µM was 106%. With `CN(CCCN1CCCCC1)C(=O)C1Cc2cc(Cl)ccc2O1` (stereo not drawn) [CBK282162] the viability at 28.5 h, 10 µM was 104%. Work on `CC(C)c1cc(C(=O)N(CCO)CC2CC3C=CC2C3)n(C)n1` (stereo not drawn) [CBK282164] yielded a viability at 28.5 h, 10 µM of 84.6%. In the case of `O=C(CCn1c(C(F)F)cc2cccnc21)NCC1CCCO1` (stereo not drawn) [CBK282165], the viability at 28.5 h, 10 µM was 83%. In the case of `CC(C(=O)N1CCC(c2nn(C)c3ncccc23)CC1)c1ccccc1` (stereo not drawn) [CBK282166], the viability at 28.5 h, 10 µM was 97.4%. `CC(=O)NCCn1cc2c(n1)[C@H]1CN(C(=O)C(C)(C)C)C[C@H]1CC2` [CBK282168] gave a viability at 28.5 h, 10 µM of 102%. In the case of `CCCn1ncc(C(=O)N2CCC(Oc3ccccc3F)CC2)c1C` [CBK282169], the viability at 28.5 h, 10 µM was 115%. `CC(=O)NC(c1nccs1)C1CCCN(C(=O)C2CCCCC2)C1` (stereo not drawn) [CBK282170] gave a viability at 28.5 h, 10 µM of 113%. For `CCc1cc(C(=O)N2CCC(Oc3ccccc3F)CC2)n(C)n1` [CBK282172], the viability at 28.5 h, 10 µM was 109%. With `Cc1ccc(-c2nc(C)sc2CC(=O)N(C)CCN(C)C)cc1` [CBK282175] the viability at 28.5 h, 10 µM was 112%. For `O=C(C1CC2C=CC1C21CC1)N1CCC(Oc2ccccc2F)CC1` (stereo not drawn) [CBK282179], the viability at 28.5 h, 10 µM was 103%. Molecule `Cc1c(CN2CCCCC2CCN2CCCC2=O)oc2ccccc12` (stereo not drawn) [CBK282181] has a viability at 28.5 h, 10 µM of 104%. With `CCC(CC)C(=O)N1C[C@H]2CCc3cn(CCNC(C)=O)nc3[C@H]2C1` [CBK282183] the viability at 28.5 h, 10 µM was 104%. With `Cc1nn(CC(C)C(=O)N2CCCC(CN(C)C)C2)c(C)c1Cl` (stereo not drawn) [CBK282186] the viability at 28.5 h, 10 µM was 102%. `COc1ccc2c(c1)c(C)c(C(=O)N1CCCCC1CN(C)C)n2C` (stereo not drawn) [CBK282190] gave a viability at 28.5 h, 10 µM of 90.1%. For `CN(C)CC1CCCCN1C(=O)C1CC(=O)N(c2cccc(F)c2)C1` (stereo not drawn) [CBK282192], the viability at 28.5 h, 10 µM was 108%. In the case of `Cc1nc(SCC(=O)NCC2CCCOC2)oc1C` (stereo not drawn) [CBK282195], the viability at 28.5 h, 10 µM was 94.6%. Molecule `Cc1nc(C)c(C(=O)NCCN2CCCCC2C)s1` (stereo not drawn) [CBK282200] has a viability at 28.5 h, 10 µM of 106%. In the case of `O=C(CC1CCCCO1)Nc1cccc(Cn2ccnc2)c1` (stereo not drawn) [CBK282204], the viability at 28.5 h, 10 µM was 90.6%. In the case of `CCN1CCCCC1CNC(=O)c1cc(C2CC2)n[nH]1` (stereo not drawn) [CBK282205], the viability at 28.5 h, 10 µM was 91.1%. `CCN1CCCCC1CNC(=O)c1n[nH]c2c1CCC2` (stereo not drawn) [CBK282207] showed a viability at 28.5 h, 10 µM of 96.2%. Work on `CC(CNC(=O)Cn1nc(C(F)(F)F)c2c1CCC2)N1CCCC1` (stereo not drawn) [CBK282212] yielded a viability at 28.5 h, 10 µM of 89.9%. For `CN(CC(F)(F)F)C(=O)CCc1nc(-c2cccs2)no1` [CBK282215], the viability at 28.5 h, 10 µM was 89.8%. For `O=C(C1C2CCCCC21)N1CCC(Oc2cccc(F)c2)CC1` (stereo not drawn) [CBK282216], the viability at 28.5 h, 10 µM was 106%. Work on `COc1ccc2c(c1)CCCN2C(=O)CCn1ccc(C)n1` [CBK282217] yielded a viability at 28.5 h, 10 µM of 104%. For `CCc1noc(C)c1C(=O)NCCN1CCCCC1C` (stereo not drawn) [CBK282219], the viability at 28.5 h, 10 µM was 98.9%. In the case of `CC(Cn1cccn1)NCc1cn(C)c2cc(F)ccc12` (stereo not drawn) [CBK282220], the viability at 28.5 h, 10 µM was 88.4%.
